Experiments:
Assay in all cases: relative viability (nuclei count vs DMSO), 5 days (fraction); higher = more cells survive
[1] = compound: C(C(=O)C(=O)O)Br [Bromopyruvate] + CC(C)C[C@H](NC(=O)[C@H](Cc1ccccc1)NC(=O)c1cnccn1)B(O)O [Bortezomib] (partner 0.002 µM)
Procedure, shortened: (§1)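 Five library-drug doses in √10 steps were combined with a fixed anchor-drug dose, or a single drug was given alone, by pin tool to lung cancer cell lines in 1536-well plates the day after seeding. Nuclei were stained and counted after 5 days. Relative viability is the nuclei count in treated wells over that in vehicle wells, taken as the median of duplicate plates.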

[2] = compound: C(C(=O)C(=O)O)Br [Bromopyruvate] + CS(=O)(=O)N1CCN(Cc2cc3nc(-c4cccc5[nH]ncc45)nc(N4CCOCC4)c3s2)CC1 [Pictilisib] (partner 1 µM)
Procedure, shortened: as §1

Bromopyruvate + Olaparib = compound: C(C(=O)C(=O)O)Br [Bromopyruvate] + O=C(c1cc(Cc2n[nH]c(=O)c3ccccc23)ccc1F)N1CCN(C(=O)C2CC2)CC1 [Olaparib] (partner 8 µM)
Procedure, shortened: as §1

Bicalutamide + Dasatinib = compound: CC(O)(CS(=O)(=O)c1ccc(F)cc1)C(=O)Nc1ccc(C#N)c(C(F)(F)F)c1 [Bicalutamide] + Cc1nc(Nc2ncc(C(=O)Nc3c(C)cccc3Cl)s2)cc(N2CCN(CCO)CC2)n1 [Dasatinib] (partner 0.075 µM)
Procedure, shortened: as §1

Cell Line	relative viability ([1]; first compound 1 µM)	relative viability ([1]; first compound 3.162 µM)	relative viability ([1]; first compound 10 µM)	relative viability ([1]; first compound 31.62 µM)	relative viability ([1]; first compound 100 µM)	relative viability ([2]; first compound 1 µM)	relative viability ([2]; first compound 3.162 µM)	relative viability ([2]; first compound 10 µM)	relative viability ([2]; first compound 31.62 µM)	relative viability ([2]; first compound 100 µM)	relative viability (Bromopyruvate + Olaparib; first compound 1 µM)	relative viability (Bromopyruvate + Olaparib; first compound 3.162 µM)	relative viability (Bromopyruvate + Olaparib; first compound 31.62 µM)	relative viability (Bromopyruvate + Olaparib; first compound 100 µM)	relative viability (Bicalutamide + Dasatinib; first compound 0.08 µM)	relative viability (Bicalutamide + Dasatinib; first compound 0.253 µM)	relative viability (Bicalutamide + Dasatinib; first compound 0.8 µM)	relative viability (Bicalutamide + Dasatinib; first compound 2.53 µM)	relative viability (Bromopyruvate + Olaparib; first compound 10 µM)
HARA	1.11	1.13	1.13	1.17	1.15	0.276	0.47	0.332	0.485	0.449	0.836	1.45	0.632	0.738	0.273	0.248	0.314	0.265	–
HCC-15	0.98	1.03	1.03	0.99	0.973	0.719	0.719	0.808	0.732	0.7	0.745	0.735	0.734	0.699	0.666	0.568	0.653	0.609	0.697
HCC-44	0.914	0.897	0.872	0.918	0.962	0.697	0.625	0.693	0.66	0.671	0.939	0.932	0.938	0.972	–	–	–	–	0.969
HCC-78	0.282	0.615	0.569	0.563	0.495	0.201	0.202	0.224	0.218	0.249	0.762	0.811	0.776	0.848	0.363	0.297	0.483	0.375	0.944
IA-LM	0.872	0.835	0.908	0.835	0.64	0.336	0.357	0.328	0.28	0.434	0.839	0.857	0.98	0.941	–	–	–	–	0.855
LK-2	–	–	–	–	–	0.548	0.526	0.59	0.704	0.642	0.827	0.816	0.591	0.717	0.283	0.224	0.261	0.293	0.815
NCI-H358	–	–	–	–	–	0.342	0.397	0.343	0.326	0.328	0.591	0.687	0.565	0.535	0.154	0.14	0.16	0.145	0.628
NCI-H522	–	–	–	–	–	–	–	–	–	–	0.615	0.54	0.643	0.477	0.815	0.722	0.901	0.87	0.693
NCI-H1299	0.973	1.02	1.06	0.956	1	0.779	0.811	0.809	0.664	0.799	0.937	0.951	0.979	0.882	–	–	–	–	0.963
NCI-H1395	–	–	–	–	–	0.556	0.561	0.568	0.629	0.615	0.447	0.452	0.52	0.443	0.406	0.404	0.414	0.353	0.476
NCI-H1563	0.859	0.925	0.868	0.789	0.943	0.657	0.657	0.535	0.626	0.697	–	–	–	–	0.449	0.456	0.512	0.409	–
NCI-H1648	–	–	–	–	–	–	–	–	–	–	0.731	0.92	1.11	0.982	–	–	–	–	0.978
NCI-H1703	0.369	0.244	0.366	0.315	0.543	0.238	0.226	0.256	0.271	0.269	0.648	0.418	0.633	0.502	–	–	–	–	0.335
NCI-H1793	–	–	–	–	–	0.391	0.32	0.305	0.272	0.237	0.841	0.95	0.921	0.89	0.369	0.349	0.486	0.377	0.925
NCI-H1944	–	–	–	–	–	0.353	0.354	0.352	0.315	0.365	0.395	0.432	0.419	0.402	0.233	0.203	0.216	0.208	0.429
NCI-H2170	–	–	–	–	–	0.435	0.367	0.274	0.319	0.306	0.626	0.556	0.576	0.56	0.532	0.497	0.584	0.563	0.625
NCI-H2342	–	–	–	–	–	–	–	–	–	–	0.477	0.367	0.377	0.344	0.324	0.276	0.299	0.306	0.376
SK-MES-1	–	–	–	–	–	0.356	0.32	0.427	0.373	0.321	0.802	0.738	0.626	0.554	0.343	0.358	0.427	0.301	0.85
SW 900	–	–	–	–	–	–	–	–	–	–	0.892	0.874	0.8	0.821	0.856	0.445	0.658	0.509	0.936

— the supplement of paper PMC10307832
